Measured values reported in article PMC9597362, “The thiophene α-terthienylmethanol isolated from Tagetes minuta inhibits angiogenesis by targeting protein kinase C isozymes α and β2” (Frontiers in Pharmacology, 2022).
Where two headings read alike, the source gives them in different places.

Columns and labels:
[1] = system: bovine aortic endothelial cells (BAECs); experiment: VEGF-induced tube formation assay; format: cell-based; settings: for antiangiogenic activity in tube formation: pure compounds, maximum concentration 30 μM; for IC50: Bos taurus, BAEC
Protocol: The experiment was performed according to Arnaoutova and Kleinman ([Arnaoutova and Kleinman, 2010]). Briefly, BAECs (1.5 × 10^4 cells) were placed on a 96-well plate previously coated with Matrigel®. The plates were incubated for 18 h (37°C, 5% CO2) in the presence and absence of the tested extracts or the pure compounds, at a maximum concentration of 100 μg/ml and 30 μM, respectively, with the addition of VEGF (10 ng/ml) as angiogenic stimuli. […] Controls without or with ethanol (negative control) were simultaneously run. The final concentration of vehicle per well in this and all the experiments described herein was 1% v/v. […] The images were obtained with an inverted microscope and analyzed with the ImageJ software. The tubular structures were quantified. The percentages of inhibition (I%) were calculated as I% = [1−(total tube length treatment/total tube length control)] × 100. Each condition was assessed in triplicate. Each experiment was performed independently three times.

[2] = system: BAEC cells; experiment: Matrigel (Boyden chamber) invasion assay, BAEC; format: cell-based, bovine; settings: 24 h, VEGF 10 ng/ml chemoattractant, relative to control
[3] = system: MDA-MB-231 cells; experiment: Matrigel (Boyden chamber) invasion assay, MDA-MB-231; format: cell-based, human; settings: 30 μM, 16 h, 10% FBS chemoattractant
[4] = system: PKC-α; settings: cited from earlier work; for Log(IC50/M): given as log of IC50 in M (negative)
[5] = system: PKC-β; settings: cited from earlier work; for Log(IC50/M): given as log of IC50 in M (negative)
[6] = system: 1:1 mixture of recombinant PKC-α and -β2 isozymes; settings: 1:1 mixture α and β, cited from earlier work; for Log(IC50/M): given as log of IC50 in M (negative)

## Cc1ccc(-c2ccc(C#CCCO)s2)s1 [Compound 1, 5′-methyl-[5-(4-hydroxy-1-butynyl)]-2,2′-bithiophene]
[1]
  antiangiogenic activity in tube formation: devoid of activity

## OCCC#Cc1ccc(-c2cccs2)s1 [Compound 2, 5-(4-hydroxybut-1-ynyl)-2,2′-bithiophene]
[1]
  antiangiogenic activity in tube formation: devoid of activity

## OCc1ccc(-c2ccc(-c3cccs3)s2)s1 [Compound 3, 5-hydroxymethyl-2,2':5′,2″-terthiophene]
[1]; conversion of the μM value, read-out: IC50 tube formation expressed
  IC50: ~0.8 µg/mL
[1]; pure compound, VEGF-induced, 18 h, read-out: IC50 tube formation
  IC50: 2.7 ± 0.4 µM
[1]; at 1.2 μM, p > 0.05
  antiangiogenic effect compared with axitinib 10 μM: comparable to that of 10 μM of the potent angiogenesis inhibitor axitinib
[2]; 10 μM
  invasive cells: 15.7 ± 2.5%
[2]; 30 μM
  invasive cells: 1.6 ± 0.4%
[3]
  reduction of cell invasion: 32.7 ± 3.1%
[4]; listed for PKC α, ref Kim et al. (1998)
  Log(IC50/M): −5.3979
[5]; listed for PKC β, ref Kim et al. (1998)
  Log(IC50/M): −5.3979
[5]; listed for PKC β, source assay used 1:1 mixture of PKC-α and -β2, ref Kim et al. (1998)
  IC50: 4 µM
[6]; ref Kim et al. (1998)
  IC50: 4 µM

## O=Cc1ccc(-c2ccc(-c3ccc(C=O)s3)s2)s1 [DAT]
[6]; ref Kim et al. (1998)
  IC50: 0.3 µM
  Log(IC50/M): −6.5229

## N=C(N)NCCNS(=O)(=O)c1cccc2cnccc12 [H4, N-(2-guanidinoethyl)isoquinoline-5-sulfonamide]
[6]; ref Kinsella et al. (1992)
  IC50: 10 µM
  Log(IC50/M): −5.0000

## CC1CNCCN1S(=O)(=O)c1cccc2cnccc12 (stereo not drawn) [H7, 1-(5-Isoquinolinesulfonyl)-2-methylpiperazine]
[6]; ref Kinsella et al. (1992)
  IC50: 40 µM
  Log(IC50/M): −4.3979

## CN1CCN(c2nc(C3=C(c4c[nH]c5ccccc45)C(=O)NC3=O)c3ccccc3n2)CC1 [NVP, 3-(1H-indol-3-yl)-4-[2-(4-methylpiperazin-1-yl)quinazolin-4-yl]-1H-pyrrole-2,5-dione]
[4]; PKC α, ref Evenou et al. (2009)
  Log(IC50/M): −9.0223

## c1csc(-c2ccc(-c3cccs3)s2)c1 [TT, Terthiophene]
[6]; ref Kim et al. (1998)
  IC50: 10 µM
  Log(IC50/M): −5.0000
